# Source: paper PMC5218480 (PLoS ONE, 2017)
# System: MV-4-11 cells
# Test: Gene expression microarray analysis (Affymetrix PrimeView) and GSEA
# Assay type: cell-based, human
# Design: RFU PODN (11730768_x_at) / Fold change /veh PODN (11730768_x_at) / RFU LINC00158 (11744669_a_at) / Fold change /veh LINC00158 (11744669_a_at) / RFU DUSP10 (11751237_a_at) / Fold change /veh DUSP10 (11751237_a_at) / RFU ID3 (11757404_x_at) / Fold change /veh ID3 (11757404_x_at) / RFU PLEKHG5 (11737974_s_at) / Fold change /veh PLEKHG5 (11737974_s_at) / RFU LRRC4B (11730491_at) / Fold change /veh LRRC4B (11730491_at) / RFU GIMAP4 (11747438_a_at) / Fold change /veh GIMAP4 (11747438_a_at) / RFU KRT8 (11758183_x_at) / Fold change /veh KRT8 (11758183_x_at) / RFU CNN1 (11734310_a_at) / Fold change /veh CNN1 (11734310_a_at) / RFU VPS37D (11726825_at) / Fold change /veh VPS37D (11726825_at) / RFU C10orf10 (11716522_x_at) / Fold change /veh C10orf10 (11716522_x_at) / RFU KIR2DL2 /// KIR2DL4 /// KIR2DL5A /// KIR2DL5B /// KIR2DS1 /// KIR2DS2 /// KIR2DS3 /// KIR2DS4 /// KIR3DL3 /// KIR3DL3 /// KIR3DS1 (11738374_at) / Fold change /veh KIR2DL2 /// KIR2DL4 /// KIR2DL5A /// KIR2DL5B /// KIR2DS1 /// KIR2DS2 /// KIR2DS3 /// KIR2DS4 /// KIR3DL3 /// KIR3DL3 /// KIR3DS1 (11738374_at) / RFU C1QL1 (11718748_at) / Fold change /veh C1QL1 (11718748_at) / RFU TMPRSS4 (11747572_a_at) / Fold change /veh TMPRSS4 (11747572_a_at) / RFU HAMP (11756126_x_at) / Fold change /veh HAMP (11756126_x_at) / RFU RNFT2 (11725882_a_at) / Fold change /veh RNFT2 (11725882_a_at) / RFU NR4A2 (11747474_a_at) / Fold change /veh NR4A2 (11747474_a_at) / RFU ABCC12 (11746883_a_at) / Fold change /veh ABCC12 (11746883_a_at) / RFU TMEM136 (11760407_x_at) / Fold change /veh TMEM136 (11760407_x_at) / RFU CLDN22 /// WWC2 (11732394_at) / Fold change /veh CLDN22 /// WWC2 (11732394_at) / RFU HLA-DPB1 (11760878_x_at) / Fold change /veh HLA-DPB1 (11760878_x_at) / RFU SPINT1 (11716480_a_at) / Fold change /veh SPINT1 (11716480_a_at) / RFU GAP43 (11754022_s_at) / Fold change /veh GAP43 (11754022_s_at) / RFU A4GNT (11735810_at) / Fold change /veh A4GNT (11735810_at) / RFU PRB3 (11715151_x_at) / Fold change /veh PRB3 (11715151_x_at) / RFU TUBB4B (11761932_at) / Fold change /veh TUBB4B (11761932_at) / RFU CAPN14 (11732068_a_at) / Fold change /veh CAPN14 (11732068_a_at) / RFU TMCC2 (11721928_a_at) / Fold change /veh TMCC2 (11721928_a_at) / RFU IRGQ (11745062_a_at) / Fold change /veh IRGQ (11745062_a_at) / RFU FAM174B (11720279_a_at) / Fold change /veh FAM174B (11720279_a_at) / RFU TMPRSS4 (11748680_a_at) / Fold change /veh TMPRSS4 (11748680_a_at) / RFU FAM212B (11763350_a_at) / Fold change /veh FAM212B (11763350_a_at) / RFU PLEKHG5 (11743358_a_at) / Fold change /veh PLEKHG5 (11743358_a_at) / RFU ZSCAN30 (11745921_a_at) / Fold change /veh ZSCAN30 (11745921_a_at) / RFU CMKLR1 (11741424_a_at) / Fold change /veh CMKLR1 (11741424_a_at) / RFU LOC101060620 /// MAPK8IP1 (11723275_at) / Fold change /veh LOC101060620 /// MAPK8IP1 (11723275_at) / RFU SPTSSB (11747773_x_at) / Fold change /veh SPTSSB (11747773_x_at) / RFU PRSS12 (11739890_at) / Fold change /veh PRSS12 (11739890_at) / RFU BIN1 (11741810_x_at) / Fold change /veh BIN1 (11741810_x_at) / RFU WNT11 (11732464_a_at) / Fold change /veh WNT11 (11732464_a_at) / RFU C10orf10 (11716521_a_at) / Fold change /veh C10orf10 (11716521_a_at) / RFU C5orf56 (11738089_at) / Fold change /veh C5orf56 (11738089_at) / RFU CYB561 (11721691_x_at) / Fold change /veh CYB561 (11721691_x_at) / RFU ANKRD19P (11752326_a_at) / Fold change /veh ANKRD19P (11752326_a_at) / RFU OR2T12 /// OR2T33 /// OR2T8 (11738714_s_at) / Fold change /veh OR2T12 /// OR2T33 /// OR2T8 (11738714_s_at) / RFU VCAN (11748164_a_at) / Fold change /veh VCAN (11748164_a_at) / RFU JSRP1 (11732532_at) / Fold change /veh JSRP1 (11732532_at) / RFU KRTAP10-11 (11738290_x_at) / Fold change /veh KRTAP10-11 (11738290_x_at) / RFU MYO3A (11730013_a_at) / Fold change /veh MYO3A (11730013_a_at) / RFU EBF3 (11725865_a_at) / Fold change /veh EBF3 (11725865_a_at) / RFU CAMK2N1 (11719241_x_at) / Fold change /veh CAMK2N1 (11719241_x_at) / RFU C5orf56 (11738088_a_at) / Fold change /veh C5orf56 (11738088_a_at) / RFU OLFML3 (11715873_a_at) / Fold change /veh OLFML3 (11715873_a_at) / RFU LOC100653217 /// NTM (11731650_a_at) / Fold change /veh LOC100653217 /// NTM (11731650_a_at) / RFU MAPK11 (11762145_a_at) / Fold change /veh MAPK11 (11762145_a_at) / RFU FIZ1 (11724087_x_at) / Fold change /veh FIZ1 (11724087_x_at) / RFU OASL (11726364_x_at) / Fold change /veh OASL (11726364_x_at) / RFU SOX15 (11748057_x_at) / Fold change /veh SOX15 (11748057_x_at) / RFU CD79A (11719716_a_at) / Fold change /veh CD79A (11719716_a_at) / RFU HIST1H1D (11736915_at) / Fold change /veh HIST1H1D (11736915_at) / RFU CASKIN2 (11723855_a_at) / Fold change /veh CASKIN2 (11723855_a_at) / RFU LOC730098 (11760151_x_at) / Fold change /veh LOC730098 (11760151_x_at) / RFU OR4N2 (11742367_at) / Fold change /veh OR4N2 (11742367_at) / RFU PRRT2 (11749266_a_at) / Fold change /veh PRRT2 (11749266_a_at) / RFU SNX32 (11753110_a_at) / Fold change /veh SNX32 (11753110_a_at) / RFU CDHR5 (11726645_a_at) / Fold change /veh CDHR5 (11726645_a_at) / RFU RCAN1 (11760418_a_at) / Fold change /veh RCAN1 (11760418_a_at) / RFU FAM167A (11723789_a_at) / Fold change /veh FAM167A (11723789_a_at) / RFU FAM26E (11764081_at) / Fold change /veh FAM26E (11764081_at) / RFU ISYNA1 (11749810_s_at) / Fold change /veh ISYNA1 (11749810_s_at) / RFU ACY1 (11761880_at) / Fold change /veh ACY1 (11761880_at) / RFU 11764098_at / Fold change /veh 11764098_at / RFU SAMD14 (11745864_x_at) / Fold change /veh SAMD14 (11745864_x_at) / RFU NPB (11741838_a_at) / Fold change /veh NPB (11741838_a_at) / RFU TMPRSS6 (11731388_a_at) / Fold change /veh TMPRSS6 (11731388_a_at) / RFU KRTAP10-2 (11738614_at) / Fold change /veh KRTAP10-2 (11738614_at) / RFU ARHGAP8 /// PRR5-ARHGAP8 (11727945_x_at) / Fold change /veh ARHGAP8 /// PRR5-ARHGAP8 (11727945_x_at) / RFU KRTAP5-7 /// NADSYN1 (11734609_at) / Fold change /veh KRTAP5-7 /// NADSYN1 (11734609_at) / RFU RASL12 (11751679_a_at) / Fold change /veh RASL12 (11751679_a_at) / RFU CDKN2B (11736163_a_at) / Fold change /veh CDKN2B (11736163_a_at) / RFU PRF1 (11729649_at) / Fold change /veh PRF1 (11729649_at) / RFU, ZNF638 /// ZNF638-IT1 / Fold change vs veh, ZNF638 /// ZNF638-IT1 / RFU, PANK3 / Fold change vs veh, PANK3 / RFU, SH3YL1 / Fold change vs veh, SH3YL1 / RFU, ZEB2 / Fold change vs veh, ZEB2 / RFU, NRIP1 / Fold change vs veh, NRIP1 / RFU, PTTG1IP / Fold change vs veh, PTTG1IP / RFU, CAPN2 / Fold change vs veh, CAPN2 / RFU, MED14 / Fold change vs veh, MED14 / RFU, SNORA58 / Fold change vs veh, SNORA58 / RFU, C1orf63 / Fold change vs veh, C1orf63 / RFU, LRRFIP1 / Fold change vs veh, LRRFIP1 / RFU, NDUFAF7 / Fold change vs veh, NDUFAF7 / RFU, SLC12A2 / Fold change vs veh, SLC12A2 / RFU, IBTK / Fold change vs veh, IBTK / RFU, ESF1 / Fold change vs veh, ESF1 / Fold change vs veh, TMEM50B / RFU, TAOK1 / Fold change vs veh, TAOK1 / RFU, ACBD3 / Fold change vs veh, ACBD3 / RFU, TMA16 / Fold change vs veh, TMA16 / RFU, RWDD3 / Fold change vs veh, RWDD3 / RFU, BCAT1 / Fold change vs veh, BCAT1 / RFU, EDEM3 / Fold change vs veh, EDEM3 / RFU, TMEM33 / Fold change vs veh, TMEM33 / RFU, WDR75 / Fold change vs veh, WDR75 / RFU, AHCTF1 / Fold change vs veh, AHCTF1 / RFU, TFRC / Fold change vs veh, TFRC / RFU, ZDHHC17 / Fold change vs veh, ZDHHC17 / RFU, NOM1 / Fold change vs veh, NOM1 / RFU, ARL8B / Fold change vs veh, ARL8B / RFU, ZBTB11 / Fold change vs veh, ZBTB11 / RFU, TAMM41 / Fold change vs veh, TAMM41 / RFU, KIAA1704 /// LOC100996395 / Fold change vs veh, KIAA1704 /// LOC100996395 / RFU, ING1 / Fold change vs veh, ING1 / RFU, TRMT61B / Fold change vs veh, TRMT61B / RFU, FUBP3 / Fold change vs veh, FUBP3 / RFU, TP53 / Fold change vs veh, TP53 / RFU, TNKS2 / Fold change vs veh, TNKS2 / RFU, ZFP14 / Fold change vs veh, ZFP14 / RFU, ACTR2 / Fold change vs veh, ACTR2 / RFU, PPP3R1 / Fold change vs veh, PPP3R1 / RFU, PIK3R1 / Fold change vs veh, PIK3R1 / RFU, HNRNPA1 / Fold change vs veh, HNRNPA1 / RFU, RNF170 / Fold change vs veh, RNF170 / RFU, ZNF28 / Fold change vs veh, ZNF28 / RFU, RNGTT / Fold change vs veh, RNGTT / RFU, OGT / Fold change vs veh, OGT / RFU, BRD1 / Fold change vs veh, BRD1 / RFU, MARS / Fold change vs veh, MARS / RFU, ZNF655 / Fold change vs veh, ZNF655 / RFU, FAHD1 / Fold change vs veh, FAHD1 / RFU, BDP1 / Fold change vs veh, BDP1 / RFU, LRRCC1 / Fold change vs veh, LRRCC1 / RFU, ARID1A / Fold change vs veh, ARID1A / RFU, ZNF146 / Fold change vs veh, ZNF146 / RFU, ZNF330 / Fold change vs veh, ZNF330 / RFU, GPN3 / Fold change vs veh, GPN3 / RFU, C9orf123 / Fold change vs veh, C9orf123 / RFU, N4BP2L2 / Fold change vs veh, N4BP2L2 / RFU, ARFIP1 / Fold change vs veh, ARFIP1 / RFU, FAM179B / Fold change vs veh, FAM179B / RFU, BCL10 / Fold change vs veh, BCL10 / RFU, UHRF1BP1L / Fold change vs veh, UHRF1BP1L / RFU, BET1 / Fold change vs veh, BET1 / RFU, CNOT2 / Fold change vs veh, CNOT2 / RFU, ZNF268 / Fold change vs veh, ZNF268 / Fold change vs veh, ZNF507 / RFU, DGCR2 / Fold change vs veh, DGCR2 / RFU, WDSUB1 / Fold change vs veh, WDSUB1 / Fold change vs veh, HSP90B1 /// MIR3652 / RFU, ADSS / Fold change vs veh, ADSS / RFU, GK / Fold change vs veh, GK / RFU, ZNF148 / Fold change vs veh, ZNF148 / RFU, TAF9 / Fold change vs veh, TAF9 / RFU, SLC1A5 / Fold change vs veh, SLC1A5 / RFU, SLMO2 / Fold change vs veh, SLMO2 / RFU, ABCC4 / Fold change vs veh, ABCC4 / RFU, LOC101060439 /// RAP1B / Fold change vs veh, LOC101060439 /// RAP1B / RFU, RFX7 / Fold change vs veh, RFX7 / RFU, GTPBP10 / Fold change vs veh, GTPBP10 / RFU, CNEP1R1 / Fold change vs veh, CNEP1R1 / RFU, BIVM-ERCC5 /// ERCC5 / Fold change vs veh, BIVM-ERCC5 /// ERCC5 / RFU, ILF3 / Fold change vs veh, ILF3 / RFU 11762660_at / Fold change /veh 11762660_at / RFU VCAN (11757783_s_at) / Fold change /veh VCAN (11757783_s_at) / RFU DDX43 (11728927_at) / Fold change /veh DDX43 (11728927_at) / RFU KRT8 (11758188_x_at) / Fold change /veh KRT8 (11758188_x_at) / RFU NKD1 (11759106_at) / Fold change /veh NKD1 (11759106_at) / RFU SRD5A1 (11742802_a_at) / Fold change /veh SRD5A1 (11742802_a_at) / RFU TPSAB1 /// TPSB2 (11721975_s_at) / Fold change /veh TPSAB1 /// TPSB2 (11721975_s_at) / RFU GSTM3 (11746129_a_at) / Fold change /veh GSTM3 (11746129_a_at) / RFU IL23R (11737362_x_at) / Fold change /veh IL23R (11737362_x_at) / RFU TMEM51 (11727254_a_at) / Fold change /veh TMEM51 (11727254_a_at) / RFU PIWIL2 (11732686_x_at) / Fold change /veh PIWIL2 (11732686_x_at) / RFU ORM1 (11744905_x_at) / Fold change /veh ORM1 (11744905_x_at) / RFU CCDC152 (11743942_at) / Fold change /veh CCDC152 (11743942_at) / RFU ECM1 (11717891_a_at) / Fold change /veh ECM1 (11717891_a_at) / RFU IL23R (11748794_a_at) / Fold change /veh IL23R (11748794_a_at) / RFU TNFAIP8L3 (11732012_x_at) / Fold change /veh TNFAIP8L3 (11732012_x_at) / RFU MBOAT4 (11741988_at) / Fold change /veh MBOAT4 (11741988_at) / RFU 11764193_at / Fold change /veh 11764193_at / RFU TMEM53 (11763286_at) / Fold change /veh TMEM53 (11763286_at) / RFU MAGEB2 (11727129_at) / Fold change /veh MAGEB2 (11727129_at) / RFU TMEM200A (11744735_a_at) / Fold change /veh TMEM200A (11744735_a_at) / RFU CCDC152 (11751479_a_at) / Fold change /veh CCDC152 (11751479_a_at) / RFU FAM211A (11726209_a_at) / Fold change /veh FAM211A (11726209_a_at) / RFU RGS16 (11746705_a_at) / Fold change /veh RGS16 (11746705_a_at) / RFU VCAN (11755009_s_at) / Fold change /veh VCAN (11755009_s_at) / RFU RHOB (11743442_s_at) / Fold change /veh RHOB (11743442_s_at) / RFU RGS16 (11720943_a_at) / Fold change /veh RGS16 (11720943_a_at) / RFU RGS16 (11720944_at) / Fold change /veh RGS16 (11720944_at) / RFU, VPS4B / Fold change vs veh, VPS4B / RFU, CREB1 / Fold change vs veh, CREB1 / RFU, DNAJC13 / Fold change vs veh, DNAJC13 / RFU, GNAQ / Fold change vs veh, GNAQ / RFU, CDK5R1 / Fold change vs veh, CDK5R1 / RFU, ZRANB3 / Fold change vs veh, ZRANB3 / RFU, CUL4A / Fold change vs veh, CUL4A / RFU, CCNY / Fold change vs veh, CCNY / RFU, UFL1 / Fold change vs veh, UFL1 / RFU, COG3 / Fold change vs veh, COG3 / RFU, DIAPH2 / Fold change vs veh, DIAPH2 / RFU, SKA2 / Fold change vs veh, SKA2 / RFU, AFF3 / Fold change vs veh, AFF3 / RFU, LMF1 / Fold change vs veh, LMF1 / RFU, IPO11 / Fold change vs veh, IPO11 / RFU, DFFB / Fold change vs veh, DFFB / RFU, FOXP1 / Fold change vs veh, FOXP1 / RFU, CARD8 / Fold change vs veh, CARD8 / RFU, STRN3 / Fold change vs veh, STRN3 / RFU, ADK / Fold change vs veh, ADK / RFU, RASSF2 / Fold change vs veh, RASSF2 / RFU, WIPF1 / Fold change vs veh, WIPF1 / RFU, LARP1B / Fold change vs veh, LARP1B / RFU, RASA1 / Fold change vs veh, RASA1 / RFU, RB1 / Fold change vs veh, RB1 / RFU, PPFIA1 / Fold change vs veh, PPFIA1 / RFU, MAT2A / Fold change vs veh, MAT2A / RFU, CCT5 / Fold change vs veh, CCT5 / RFU, WDR92 / Fold change vs veh, WDR92 / RFU, CUX1 / Fold change vs veh, CUX1 / RFU, TTC7A / Fold change vs veh, TTC7A / RFU, TMEM135 / Fold change vs veh, TMEM135 / RFU, DEPTOR / Fold change vs veh, DEPTOR / RFU, CPM / Fold change vs veh, CPM / RFU, DNAJB6 / Fold change vs veh, DNAJB6 / RFU, CACNA2D3 / Fold change vs veh, CACNA2D3 / RFU, DTX4 / Fold change vs veh, DTX4 / RFU, TFCP2 / Fold change vs veh, TFCP2 / RFU, GMCL1 /// GMCL1P1 / Fold change vs veh, GMCL1 /// GMCL1P1 / RFU, AEBP2 / Fold change vs veh, AEBP2 / RFU, SNHG1 /// SNORD22 /// SNORD25 /// SNORD26 /// SNORD27 /// SNORD28 /// SNORD29 /// SNORD31 / Fold change vs veh, SNHG1 /// SNORD22 /// SNORD25 /// SNORD26 /// SNORD27 /// SNORD28 /// SNORD29 /// SNORD31 / Fold change (Aza/veh), C12orf56 (ProbeSet 11735607_a_at) / Fold change (ACY-1035/veh), C12orf56 (ProbeSet 11735607_a_at) / Fold change (Aza/veh), FGFR1OP (ProbeSet 11751329_s_at) / Fold change (ACY-1035/veh), FGFR1OP (ProbeSet 11751329_s_at) / Fold change (Aza/veh), VPS36 (ProbeSet 11739960_a_at) / Fold change (ACY-1035/veh), VPS36 (ProbeSet 11739960_a_at) / RFU SYPL1 (11715823_x_at) / Fold change /veh SYPL1 (11715823_x_at) / RFU IGFBP7 (11715501_s_at) / Fold change /veh IGFBP7 (11715501_s_at) / RFU REEP3 (11722064_at) / Fold change /veh REEP3 (11722064_at) / RFU IGLL1 (11728026_x_at) / Fold change /veh IGLL1 (11728026_x_at): dose or concentration left out as unconfirmed
# Conditions: ProbeSet 11747937_a_at; LIST D
smiles,measurement,value
Nc1ccc(-c2cccs2)cc1NC(=O)c1ccc2c(c1)cc(C1CC1)n2CCN1CCOCC1 [ACY-1035],"RFU, DNAJB6",348.58 RFU
